{"source": "patent US4800194A", "about": "“Acylphosphorotriamides useful as lipid-altering agents” (priority 1986, dated 1989)", "key": {"pseudocholinesterase": {"target": "T1, pseudocholinesterase (Homo sapiens, UniProt P06276)", "T1 construct": "a 100 μl aliquot of human plasma; from tissue; host or cells: human plasma (EDTA blood, stored frozen)", "T1 sequence (P06276 29-602)": "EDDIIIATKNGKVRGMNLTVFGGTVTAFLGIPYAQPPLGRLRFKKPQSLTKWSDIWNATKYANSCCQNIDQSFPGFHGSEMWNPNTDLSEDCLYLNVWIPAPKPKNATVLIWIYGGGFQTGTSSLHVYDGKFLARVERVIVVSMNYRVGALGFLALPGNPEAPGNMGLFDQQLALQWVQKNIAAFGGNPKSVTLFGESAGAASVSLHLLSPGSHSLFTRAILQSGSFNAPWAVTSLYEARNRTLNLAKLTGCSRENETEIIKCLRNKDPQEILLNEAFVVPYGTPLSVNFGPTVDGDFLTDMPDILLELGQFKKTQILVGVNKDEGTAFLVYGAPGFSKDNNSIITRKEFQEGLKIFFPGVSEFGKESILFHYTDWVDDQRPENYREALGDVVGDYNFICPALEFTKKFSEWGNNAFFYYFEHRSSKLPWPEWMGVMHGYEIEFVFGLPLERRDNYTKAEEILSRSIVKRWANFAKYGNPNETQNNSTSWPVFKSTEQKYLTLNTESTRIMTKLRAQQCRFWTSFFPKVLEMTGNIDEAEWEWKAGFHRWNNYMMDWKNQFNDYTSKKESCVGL", "test": "Inhibition of human plasma pseudocholinesterase (PChE) activity (Test Method 1)", "assay_type": "biochemical", "conditions": "30 min preincubation", "description": "(§1) The following method was used to determine the relative inhibition of pseudocholinesterase and acetylcholinesterase by compounds of the present invention.\nPlasma (Source of Pseudocholinesterase Enzyme)\nHuman Plasma was obtained from blood which was collected in ethylenediaminetetraacetic acid (EDTA) treated tubes. Collected plasma was stored frozen at -20° C. until use.\n(§2) The buffer/chromogen solution was 0.25 mM 5,5'-dithiobis-[2-nitrobenzoic acid] (chromogen), 50 mM phosphate buffer, pH 7.2. In making up the buffer/chromogen solution and to keep it as colorless as possible, the phosphate buffer was first adjusted to pH 7.1 with NaOH; the chromogen was then added and dissolved; the pH was adjusted to 7.2; and the final volume was adjusted with addition of Milli-Q water. 5,5'-dithiobis-(2-nitrobenzoic acid) was obtained from Sigma Chemicals, St. Louis, MO.\n(§3) The substrate solution for the pseudocholinesterase assay was 156 mM S-butyrylthiocholine iodide, and the substrate solution for the acetylcholinesterase assay was 156 mM S-acetylthiocholine iodide. Both substrate compounds were obtained from Sigma Chemicals.\n(§4) Test Compound Stock Solutions\n(§5) Solutions of all test compounds were made up at 2 μM, 20 μM, and 200 μM concentrations (in 0.9% saline solution) except as noted where lower concentrations were necessary because of decreased solubility of the compound in saline solution.\nPseudocholinesterase (PChE) Assay\nIn three separate tubes, a 100 μl aliquot of either 0.9% saline solution, 2 μM test compound solution, or 20 μM test compound solution was mixed with a 100 μl aliquot of human plasma, and the tubes were placed in a 35° C. water bath. Four cuvettes, each containing 3 ml buffer/chromogen solution mixed with 100 μl substrate solution (156 mM S-butyrylthiocholine iodide), had been placed in a heated cuvette holder (35° C.) in a Beckman DU-8B Spectrophotometer (Beckman Instruments). After the temperature of the buffer/chromogen/substrate solution in the cuvette had equilibrated for about 10 minutes, and after 0 or 30 minutes incubation of the plasma/test compound solution, a 25 μl aliquot of the plasma/test compound solutions was added to the corresponding cuvettes numbered 2-4. Cuvette #1 remained a blank. After mixing, the net absorbance of each cuvette was determined at 405 nm every 35 seconds for ten readings. From a plot of net absorbance versus time, the initial linear portion of the curve was determined, and a rate of absorbance change per minute was calculated. The positive control (100% PChE activity) was the plasma/saline solution.\n(§6) Each compound was tested for its ability to inhibit plasma pseudocholinesterase activity and acetylcholinesterase activity. Because of variation in the time points in the linear portion of the curve, inhibition values below 10-15% and higher than 85-90% are nearly indistinguishable from 0% and 100%, respectively."}, "acetylcholinesterase": {"target": "T2, acetylcholinesterase (Homo sapiens, UniProt P22303)", "T2 construct": "The supernatant (lysed RBC's) was stored frozen; from tissue; host or cells: lysed human red blood cells (supernatant of hypotonic lysis)", "T2 sequence (P22303 other isoform, or with tags, fused parts or gaps)": "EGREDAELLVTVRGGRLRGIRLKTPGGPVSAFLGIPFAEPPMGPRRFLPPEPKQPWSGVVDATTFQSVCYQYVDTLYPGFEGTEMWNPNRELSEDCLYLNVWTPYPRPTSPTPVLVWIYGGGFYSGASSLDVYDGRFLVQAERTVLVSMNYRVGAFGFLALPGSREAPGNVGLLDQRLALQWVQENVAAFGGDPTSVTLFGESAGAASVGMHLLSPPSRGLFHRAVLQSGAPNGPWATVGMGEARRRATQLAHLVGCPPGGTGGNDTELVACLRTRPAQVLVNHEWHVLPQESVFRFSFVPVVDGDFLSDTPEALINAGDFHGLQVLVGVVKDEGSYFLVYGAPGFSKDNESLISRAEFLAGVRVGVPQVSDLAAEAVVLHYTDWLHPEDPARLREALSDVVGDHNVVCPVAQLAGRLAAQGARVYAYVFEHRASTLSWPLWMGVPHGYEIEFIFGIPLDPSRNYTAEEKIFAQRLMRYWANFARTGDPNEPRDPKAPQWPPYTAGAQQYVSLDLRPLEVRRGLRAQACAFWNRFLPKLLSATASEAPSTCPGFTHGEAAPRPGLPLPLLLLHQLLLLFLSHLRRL", "test": "Inhibition of acetylcholinesterase (AChE) activity of lysed human red blood cells (Test Method 1)", "assay_type": "biochemical", "conditions": "60 min preincubation", "description": "as §1\nLysed Red Blood Cells (RBC's) (Source of Acetylcholinesterase Enzyme)\nHuman blood which was collected in EDTA treated tubes was centrifuged at 1500×g for 10 min. at 4° C. One volume of chilled 0.9% saline solution was gently mixed with one volume of packed RBC's. One volume of this suspension was then washed three times with ten volumes of chilled 0.9% saline solution (4° C.). Each wash was centrifuged at 1500×g for 10 min. at 4° C. and supernatant was discarded. After the last wash the supernatant was replaced with deionized, distilled water (treated by Milli-Q apparatus, Millipore Corp., Bedford, MA) (4° C.). After 15 min. at 4° C. the suspension was centrifuged at 1500×g for 10 min. at 4° C. The supernatant (lysed RBC's) was stored frozen at -20° C. until use.\nas §2, §3, §4, §5\nAcetylcholinesterase (AChE) Assay\nThe acetylcholinesterase assay was performed identically to the pseudocholinesterase assay with the following exceptions. The concentrations of the stock solutions of test compounds were 20 μM and 200 μM, instead of 2 μM and 20 μM, and the substrate solution was 156 mM S-acetylthiocholine iodide instead of S-butyrylthiocholine iodide. The lysed RBC's/test compound solution was incubated for 0 and 60 minutes instead of 0 and 30 minutes before being added to the cuvette containing the buffer/chromogen/substrate solution. From a plot of net absorbance versus time there was an initial period before the curve reached a steady linear rate. From this linear portion of the curve a rate of absorbance change per minute was calculated.\nas §6"}}, "data": [{"smiles": "NP(N)(=O)NC(=O)c1ccc(F)cc1", "note": "[Test Compound 4, N-(diaminophosphinyl)-4-fluorobenzamide]", "values": [{"measurement": "inhibition at 1 µM", "setting": "pseudocholinesterase; 1 μM", "result": 92.8, "unit": "%"}, {"measurement": "inhibition at 10 µM", "setting": "pseudocholinesterase; 10 μM", "result": 99.1, "unit": "%"}, {"measurement": "inhibition at 10 µM", "setting": "acetylcholinesterase; 10 μM", "result": 12.4, "unit": "%"}, {"measurement": "inhibition at 100 µM", "setting": "acetylcholinesterase; 100 μM", "result": 52.3, "unit": "%"}]}]}
